Residues, ends and D or L forms follow the SMILES beside them. *: point of attachment. Cbz = O=C(OCc1ccccc1)*
Tests used:
[1] = tested on: NLRP3; experiment: P2Y2-induced NLRP3 degradation in transfected 293T cells (western blot); type: cell-based; settings: for down regulation of NLRP3 by P2Y2: 293T cells co-expressing NLRP3 and GFP-P2Y2; for NLRP3 degradation: pharmacological inhibition of SRC
Method: Cells were washed twice with PBS and lysed in appropriated buffer (250 mM NaCl, 0.1% NP-40, 5 mM EDTA, 10 mM Na3VO4, 10 mM NaF, 5 mM DTT, 3 mM Na4P207, 1 mM EGTA, 10 mM Glycerol phosphate, 10 mM Tris-Hcl (pH=7.5) and the protease and phosphatase inhibitors (Roche)). 10-40 μg of protein extracts were run on 4-12% or 10% SDS-PAGE and transferred at 4° C. onto a nitrocellulose membrane (0.2 Micron). After incubation for 2 hours at room temperature with 5% nonfat milk or BSA (Bovine Serum Albumine) in Tris-buffered saline and 0.1% Tween 20 (TBS-Tween), membranes were incubated with primary antibody at 4° C. overnight. […] The primary antibodies against GFP (D5.1), PYK2 (5E2). PYK2Y402*, SRC (36D10), SRCY416*, AMPKα (F6), AMPKT172* (40H9) and LC3A/B were obtained from Cell Signaling. Primary antibodies against IL-1β, CASP1, ASC (TMS1), IRF5, PNX1, Actin and GAPDH were purchased from Abcam. The primary antibodies anti-CAp24 (42-50) and anti-gp120 (2G12) were from NIH (AIDS Research and Reference Reagent Program, Division of AIDS, NIAID). Antibody anti-NLRP3 was from Adipogen (Cryo-2), anti-P2Y2 was from Alomone, anti-ubiquitin (P4D1) was from Santa-Cruz, anti-TOM20 and anti-Flag were from Sigma. For immunoprecipitations, cell pellets were lysed 6 hours after infection or 24 hours after transfection in CHAPS buffer (50 mM Tris-HCl (pH=7.5), 0.50 M NaCl and 0.1% CHAPS) containing protease and phosphatase inhibitors. Anti-NLRP3 (Origene), anti-P2Y2 (Abcam) antibodies were incubated overnight at 4° C. with the cell lysates. The complexes were precipitated by incubation with Protein G Sepharose™ 4 Fast Flow (GE Healthcare). For anti-Flag immunoprecipitations, anti-Flag® M2 affinity Gel (Sigma) were incubated for overnight at 4° C. with the cell lysates. […] Western blots shown are representative of at least of three independent experiments.

[2] = tested on: NLRP3; experiment: NLRP3 ubiquitinylation/degradation in HIV-1NL4-3-infected THP-1 monocytes; type: cell-based, human; settings: THP-1, HIV-1NL4-3 infection
Method: (§1) Cells were washed twice with PBS and lysed in appropriated buffer (250 mM NaCl, 0.1% NP-40, 5 mM EDTA, 10 mM Na3VO4, 10 mM NaF, 5 mM DTT, 3 mM Na4P207, 1 mM EGTA, 10 mM Glycerol phosphate, 10 mM Tris-Hcl (pH=7.5) and the protease and phosphatase inhibitors (Roche)). 10-40 μg of protein extracts were run on 4-12% or 10% SDS-PAGE and transferred at 4° C. onto a nitrocellulose membrane (0.2 Micron). After incubation for 2 hours at room temperature with 5% nonfat milk or BSA (Bovine Serum Albumine) in Tris-buffered saline and 0.1% Tween 20 (TBS-Tween), membranes were incubated with primary antibody at 4° C. overnight. […] The primary antibodies against GFP (D5.1), PYK2 (5E2). PYK2Y402*, SRC (36D10), SRCY416*, AMPKα (F6), AMPKT172* (40H9) and LC3A/B were obtained from Cell Signaling. Primary antibodies against IL-1β, CASP1, ASC (TMS1), IRF5, PNX1, Actin and GAPDH were purchased from Abcam. The primary antibodies anti-CAp24 (42-50) and anti-gp120 (2G12) were from NIH (AIDS Research and Reference Reagent Program, Division of AIDS, NIAID). Antibody anti-NLRP3 was from Adipogen (Cryo-2), anti-P2Y2 was from Alomone, anti-ubiquitin (P4D1) was from Santa-Cruz, anti-TOM20 and anti-Flag were from Sigma. […]

[3] = tested on: HIV-1NL4-3; experiment: HIV-1 permissiveness of THP-1 monocytes (intracellular p24); type: cell-based; settings: human monocytes THP-1
Method: as §1

[4] = tested on: PMA-treated THP-1 macrophages stimulated with lipopolysaccharide and ATP (LPS+ATP); experiment: IL-1β secretion by LPS+ATP-stimulated PMA-treated THP-1 macrophages (ELISA); type: cell-based, Human; settings: for IL-1β secretion: after stimulation with LPS+ATP; for exacerbated IL-1β secretion of P2Y2-inhibited THP-1 macrophages: LPS+ATP stimulation, added 18 hours before; for IL-10 secretion: PMA-treated THP-1 macrophages, LPS+ATP, drug 100 μM during stimulation, FIG. 1a
Method: (§2) Human THP-1 cells were cultured in RPMI 1640 media, supplemented with 10% FBS. THP-1 cells were differentiated by treatment for 3 hours with 100 nM phorbol-12-myristate-13-acetate (PMA, Invivogen). After 2 days THP-1 cells were stimulated first 3 hours with ultrapure LPS from E. coli (10 ng/ml, LPS) and then stimulated for 6 hours with ATP (5 mM, Sigma). Supernatants were used for cytokine assays and cell lysates for western blot analysis. Kaempferol (100 μM, Sigma), OxATP (100 μM, Sigma), Suramine (100 μM, Sigma), or Bafilomycine A1 ([…], TOCRIS) were added during LPS+ATP stimulation, while, PP1 (20 μM, Sigma), PP2 (20 μM, Sigma). MnTBAP (10 μM, Sigma) and NAC (100 μM, Sigma) 18 hours before LPS+ATP stimulations. Commercially available ELISA kits for […] (Ebioscience), IL-10 (BD) or LDH (Roche) were used according to the manufacturers' instructions.

[5] = tested on: R5-tropic HIV-1BaL; experiment: HIV-1BaL replication in human MDMs (p24 release); type: cell-based
[6] = tested on: M2 human monocyte derived macrophages (MDMs); experiment: M1 polarization assays in M2 monocyte derived macrophages; type: cell-based
Method: M2 MDMs that express at 100% the differentiation marker CD11b and the scavenger receptor M2 marker CD163 were then seeded (0.5×10^6/ml in macrophage medium+10% FBS), let to be attached on the plates for 2 hours at 37° C. before treatments with interferon γ (IFNγ) (1 μg/0.5×10^6 MDMs), kaempferol (100 μM) or DMSO for control cells. MDMs and supernatants were harvest for flow cytometry and confocal microscopy analysis at 24 hours post-kaempferol treatments and for cytokines IL-10 ELISA analyses at 96 hours post-kaempferol treatments. Expressions of CD163 and IRF5 were respectively determined by flow cytometry and western blot. Release of IL-1β and IL-10 was determined as indicated above by ELISA.

[7] = tested on: PMA-differentiated THP-1 macrophages stimulated with LPS+ATP; experiment: Viability / LDH release of LPS+ATP-stimulated THP-1 macrophages; type: cell-based, Human; settings: in comparison with the control
Method: as §2

[8] = tested on: LPS+ATP-stimulated PMA-treated THP-1 macrophages; experiment: Quantification of ROS production (H2DCFDA, MitoSOX); type: cell-based, Human; settings: detectable with H2DCFDA or MitoSOX
Method: Mitochondria-associated ROS levels were measured by staining cells with H2DCFDA at 5 μM for 1 hour or with MitoSOX at 0.25 μM for 10 minutes at 37° C. Cells were then washed twice with HBSS solution and suspended in cold HBSS solution containing 1% FBS for FACS analysis^25.

[9] = tested on: LPS+ATP-stimulated PMA-treated THP-1 macrophages; experiment: Fragmentation of the mitochondrial network (TOM20, Mitotracker Green fluorescence microscopy); type: cell-based, Human; settings: TOM20 or Mitotracker Green
Method: For immunofluorescence, cells were fixed in 2% paraformaldehyde-PBS for 5 minutes, permeabilized in 0.3% Triton (Sigma) in PBS, and incubated with PBS-FBS 20% for 1 hour, as previously described^39. Mitochondrial fragmentation and actin polymerization were analysed respectively using Mitotracker® Green FM (20 nM, Invitrogen) and Alexa Fluor 488 Phalloidin. For immunohistochemistry, 4-μm sections were cut from the paraffin blocks of the paraformaldehyde fixed tissues from mice, Macaca fascicularis or humans. After paraffin removal, slides were subjected to antigen retrieval by microwave boiling in 1 mmol/l EDTA pH 9.0. Slides were incubated with anti-P2Y2 (Alomone), anti-NLRP3 (Abcam), anti-CD163 (BD laboratories), anti-gp120 (2G12), anti-CD40 (BD laboratories) or anti-CASP1 p10 (Santa Cruz) overnight after permeabilization in 0.3% Triton for 5 minutes and saturation in PBS-FBS 20% for 1 hour. […] Cells were analysed by fluorescent confocal microscopy on Leica SPE (using a 63× objective). […] Mice alveolar macrophages were dissociated from lung (using Lung Dissociation kit from Miltenyi Biotech) and analysed using anti-CD11b (APC-Cy7) (BD laboratories), anti-CD11c (PE-Cy7) (BioLegend), anti-CD40 (eFluo710) (BioLegend), anti-F4/80 (FITC) (ebioscience) and anti-GR-1 (PE) (ebioscience).

[10] = tested on: NLRP3 inflammasome; experiment: IL-1β maturation under P2Y2 inhibition; type: cell-based; settings: P2Y2i alone
Method: as §1

SMILES: O=C1C(=Cc2ccc([N+](=O)[O-])cc2)CS(=O)(=O)CC1=Cc1ccc([N+](=O)[O-])cc1 [G5]
- down regulation of NLRP3 by P2Y2 [1]: partially inhibited
- ubiquitinylation/degradation of NLRP3 [2]: increased
- HIV-1 permissiveness (intracellular accumulation of p24) [3]: enhanced

SMILES: CC(C)C[C@@H](C=O)NC(=O)[C@H](CC(C)C)NC(=O)[C@H](CC(C)C)NC(=O)OCc1ccccc1 [MG132] (Cbz-Leu-Leu-Leu-aldehyde)
- down regulation of NLRP3 by P2Y2 [1]: fully suppressed

SMILES: O=c1ccn([C@@H]2O[C@H](COP(=O)(O)OP(=O)(O)OP(=O)(O)OP(=O)(O)Oc3ccccc3)[C@@H](O)[C@H]2O)c(=O)[nH]1 [MRS2768]
- IL-1β secretion [4]: impaired

SMILES: O=c1nc2[nH]c(=O)[nH]c2c([O-])[nH]1.[Na+] [MSU, monosodium urate crystals]
- p24 antigen release and replication of R5-tropic HIV-1BaL [5]: reduced

SMILES: O=C(O)c1ccc(/C2=C3\C=CC(=N3)/C(c3ccc(C(=O)O)cc3)=c3/cc/c4[n]3[Mn]([Cl])[n]3c2ccc3/C(c2ccc(C(=O)O)cc2)=C2/C=CC(=N2)\C=4c2ccc(C(=O)O)cc2)cc1 [MnTBAP]
- exacerbated IL-1β secretion of P2Y2-inhibited THP-1 macrophages [4]: blunted

SMILES: CC(=O)N[C@@H](CS)C(=O)O [N-Acetyl Cysteine]
- exacerbated IL-1β secretion of P2Y2-inhibited THP-1 macrophages [4]: blunted

SMILES: Cc1ccc(-c2nn(C(C)(C)C)c3ncnc(N)c23)cc1 [PP1]
- NLRP3 degradation [1]: impaired

SMILES: CC(C)(C)n1nc(-c2ccc(Cl)cc2)c2c(N)ncnc21 [PP2]
- NLRP3 degradation [1]: impaired

SMILES: O=c1c(O)c(-c2ccc(O)cc2)oc2cc(O)cc(O)c12 [kaempferol]
- IL-10 secretion [4]: increased
- IL-10 secretion ([6]; M2 human MDMs, kaempferol 100 μM, FIG. 1c): increased
- secretion of the M2 cytokine interleukin-10 (IL-10) ([6]; MDMs, kaempferol 100 μM, 96 hours, FIG. 1e): reduced
- IL-1β secretion ([6]; MDMs, kaempferol 100 μM, FIG. 1c): induction
- M1 polarization ([6]; MDMs, kaempferol 100 μM, FIG. 1e): favoured the M1 polarization
- membrane expressions of the M2 markers such as CD163 ([6]; flow cytometry, 24 hours post-kaempferol): diminished
- expression of IFN regulatory factor 5 (IRF5) ([6]; western blot): increased
- viability (cell death, pyroptosis) [7]: lost their viability
- LPS+ATP-induced ROS production [8]: increased
- fragmentation of the mitochondrial network [9]: caused fragmentation
- IL-1β maturation [10]: stimulation

SMILES: Nc1ncnc2c1ncn2[C@@H](C=O)O[C@@H](C=O)COP(=O)(O)OP(=O)(O)OP(=O)(O)O [oxidized ATP]
- IL-1β secretion [4]: inhibited

SMILES: Cc1ccc(C(=O)Nc2ccc(S(=O)(=O)O)c3cc(S(=O)(=O)O)cc(S(=O)(=O)O)c23)cc1NC(=O)c1cccc(NC(=O)Nc2cccc(C(=O)Nc3cc(C(=O)Nc4ccc(S(=O)(=O)O)c5cc(S(=O)(=O)O)cc(S(=O)(=O)O)c45)ccc3C)c2)c1 [suramin]
- IL-10 secretion [4]: increased
